Test results published in patent US12202828B2, “Bicyclic heterocycle compounds and their uses in therapy” (ASTEX THERAPEUTICS LIMITED, priority 2013, dated 2025).
“And” between values parts separate entries of the source, which are not always exact repeats. Identical values can stand only once. Counter-ions that a name gives are not always drawn. Like-named read-outs stand apart in the source and are kept apart here.

How the values were obtained:
[1] = tested on: EVSA-T (human breast carcinoma); test: Anti-proliferative activity, Alamar Blue assay, EVSA-T; type: cell-based; conditions: 72 hours compound, read-out: EVSA-T prolif
Experimental: (§1) The method is based on the ability of viable cells to reduce resazurin to its fluorescent product resorufin. For each proliferation assay cells are plated onto 96 well plates and allowed to recover for 16 hours prior to the addition of inhibitor compounds (in 0.1% DMSO v/v) for a further 72 hours.
(§2) The anti-proliferative activities of compounds of the invention can be determined by measuring the ability of the compounds to inhibit growth in 3 cancer cell lines: • EVSA-T (human breast carcinoma) DSMZ cat. no.

[2] = target: T1, XIAP-Caspase-9 in HEK293-XIAP-Caspase-9 cells (Homo sapiens, UniProt P98170); test: HEK293-XIAP-Caspase-9 immunoprecipitation (IP) MSD assay; type: cell-based; conditions: compound 2 h at 37° C.; read-out: HEK293-X-C9 IP
T1 construct: FLAG; expressed in transfected cells
Experimental: Stable HEK293-XIAP-Caspase-9 cells were plated out into 96-well plates [200 μl/well at 1×10^6 cells/mL in cultured complete medium (DMEM+10% FBS+0.5 mg/mL Geneticin (Invitrogen)] and left overnight at 37° C. to recover. Compounds were added to duplicate wells in 0.1% DMSO for 2 h at 37° C. Cells were lysed in 50 μl 1×MSD lysis buffer (1% Triton X-100 in 20 mM Tris·Cl (pH 7.6), 150 mM NaCl including protease inhibitors) for 20 min rocking at room temperature. Streptavidin high bind MSD plate (L15SB-2) were coated with biotinylated anti-FLAG M2 antibody (Sigma F9291) at 25 μl/well with a 5 μg/mL dilution of antibody in PBS for 1 h, shaking; followed by blocking for 1 h with 150 μl 3% BSA/TBST. Cell lysate (25 μl) was added to the 96-well anti-FLAG coated MSD plate and placed on shaker for 4 h at room temperature. […] Plates were washed 4 times with 150 μl TBST, and 150 μl/well 1×MSD read buffer (R92TC-2) added before reading each plate.
EC50 values were determined from dose-response plots using nonlinear least-squares analysis.

[3] = tested on: MDA-MB-231 (human breast carcinoma); test: Anti-proliferative activity, Alamar Blue assay, MDA-MB-231; type: cell-based; conditions: proliferation, 72 hours compound
Experimental: as §1, §2

hERG ion channel = target: T2, hERG ion channel (Homo sapiens, UniProt Q12809); test: Population Patch Clamp (PPC) hERG assay in CHO K1 cells; type: cell-based
T2 construct: expressed in transfected cells; host or cells: CHO K1
Experimental: Inhibition of the hERG channel was measured by automated patch clamp assay in CHO K1 cells, stably transfected with the hERG ion channel. PPC measurements were performed using an IonWorks Quattro instrument (Molecular Devices Corporation, Union City, CA) using a 384 well PatchPlate (Molecular Devices Corporation) with 64 apertures per well. Each concentration of test compound was tested in duplicate wells. Amphotericin B was used to obtain electrical access to the cell interior at a final concentration of 200 μg/mL. Human ether-à-gogo related gene (hERG) currents were measured with a prepulse to +40 mV (2 s) from the holding potential of −80 mV, followed by a step to −50 mV (2 s) to elicit the deactivating tail currents, before returning to the holding potential for 1s. Compounds were incubated for 600s between the pre- and post-compound reads. The external recording solution used was 130 mM Na Gluconate, 20 mM NaCl, 4 mM KCl, 1 mM MgCl2, 1.8 mM CaCl2, 10 mM Hepes, 5 mM Glucose, pH to 7.3 with NaOH. All data were filtered for seal quality, seal drop, and current amplitude. The maximum current amplitude of the 3rd pulse tail current was calculated before (Pre) and after (Post) compound addition and the amount of block assessed by dividing the Post-compound current amplitude by the Pre-compound current amplitude.

SK-MEL-28 [4] = test: Apoptosis induction (cleaved caspase-3 cytometry), SK-MEL-28; type: cell-based, human; conditions: 1 μM Example 2 plus 1 ng/ml TNF-α, 24 hour
Experimental: (§3) Melanoma cell lines were plated out in duplicate wells of 24-well plates at 0.5×10^6 cells/ml the day before treatment to allow them to adhere. After incubation of the cells with compound(s) with or without 1 ng/ml TNF-α (R&D Systems) for 24 h in a CO2 incubator at 37° C., cells were harvested by trypsinisation. The cell pellet from the 24-well plate was resuspended in 100 μl FACS buffer (PBS+1% fetal bovine serum). NucView488 reagent (from Biotium) was added to a final concentration of 2 μM. The plate was incubated in the dark for 30 minutes before measuring fluorescent stained cells in a Guava easyCyte HT cytometer (Millipore). Cleaved caspase-3 staining was recorded in the FL1 channel, with unstained and DMSO control wells being used to set the gated stained and unstained cell populations.

SK-MEL-5 = test: Apoptosis induction (cleaved caspase-3 cytometry), SK-MEL-5; type: cell-based, human; conditions: 1 μM Example 2 plus 1 ng/ml TNF-α, 24 hour
Experimental: as §3

SK-MEL-2 = test: Apoptosis induction (cleaved caspase-3 cytometry), SK-MEL-2; type: cell-based, human; conditions: 1 μM Example 2 plus 1 ng/ml TNF-α, 24 hour
Experimental: as §3

RPMI-7951 = test: Apoptosis induction (cleaved caspase-3 cytometry), RPMI-7951; type: cell-based, human; conditions: 1 μM Example 2 plus 1 ng/ml TNF-α, 24 hour
Experimental: as §3

MALME-3M = test: Apoptosis induction (cleaved caspase-3 cytometry), MALME-3M; type: cell-based, human; conditions: 1 μM Example 2 plus 1 ng/ml TNF-α, 24 hour
Experimental: as §3

A375 [5] = test: Apoptosis induction (cleaved caspase-3 cytometry), A375; type: cell-based, human; conditions: 1 μM Example 2 plus 1 ng/ml TNF-α, 24 hour
Experimental: as §3

WM-115 = test: Apoptosis induction (cleaved caspase-3 cytometry), WM-115; type: cell-based, human; conditions: 1 μM Example 2 plus 1 ng/ml TNF-α, 24 hour, dihydrochloride
Experimental: as §3

WM-266-4 = test: Apoptosis induction (cleaved caspase-3 cytometry), WM-266-4; type: cell-based, human; conditions: 1 μM Example 2 plus 1 ng/ml TNF-α, 24 hour, dihydrochloride
Experimental: as §3

SK-MEL-28 [6] = test: Combination protocol for apoptosis, SK-MEL-28; type: cell-based, human
Experimental: as §3, with “After” for “Melanoma cell lines were plated out in duplicate wells of 24-well plates at 0.5×10^6 cells/ml the day before treatment to allow them to adhere. After”

A375 [7] = test: Combination protocol for apoptosis, A375; type: cell-based, human
Experimental: as §3
No increase in apoptosis was seen over this time scale with the combination agent shown in the first column of the table alone (with or without TNF-α)—data not shown.

[8] = Example 2 0.1 μM + 1 ng/ml TNF-α, 24 h

T1 sequence (P98170 whole entry): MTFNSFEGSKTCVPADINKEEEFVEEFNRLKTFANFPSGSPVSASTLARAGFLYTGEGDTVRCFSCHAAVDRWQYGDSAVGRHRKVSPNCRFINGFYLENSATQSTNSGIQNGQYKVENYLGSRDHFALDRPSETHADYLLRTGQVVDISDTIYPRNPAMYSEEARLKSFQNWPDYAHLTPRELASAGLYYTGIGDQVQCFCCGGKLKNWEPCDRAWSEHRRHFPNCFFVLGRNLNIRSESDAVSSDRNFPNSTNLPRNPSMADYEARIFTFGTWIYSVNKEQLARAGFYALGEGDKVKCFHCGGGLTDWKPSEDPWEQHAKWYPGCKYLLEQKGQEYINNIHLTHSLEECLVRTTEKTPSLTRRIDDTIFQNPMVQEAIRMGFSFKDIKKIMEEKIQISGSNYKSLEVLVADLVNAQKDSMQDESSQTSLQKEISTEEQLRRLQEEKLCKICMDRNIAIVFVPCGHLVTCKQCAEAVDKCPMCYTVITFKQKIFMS
T2 sequence (Q12809 whole entry): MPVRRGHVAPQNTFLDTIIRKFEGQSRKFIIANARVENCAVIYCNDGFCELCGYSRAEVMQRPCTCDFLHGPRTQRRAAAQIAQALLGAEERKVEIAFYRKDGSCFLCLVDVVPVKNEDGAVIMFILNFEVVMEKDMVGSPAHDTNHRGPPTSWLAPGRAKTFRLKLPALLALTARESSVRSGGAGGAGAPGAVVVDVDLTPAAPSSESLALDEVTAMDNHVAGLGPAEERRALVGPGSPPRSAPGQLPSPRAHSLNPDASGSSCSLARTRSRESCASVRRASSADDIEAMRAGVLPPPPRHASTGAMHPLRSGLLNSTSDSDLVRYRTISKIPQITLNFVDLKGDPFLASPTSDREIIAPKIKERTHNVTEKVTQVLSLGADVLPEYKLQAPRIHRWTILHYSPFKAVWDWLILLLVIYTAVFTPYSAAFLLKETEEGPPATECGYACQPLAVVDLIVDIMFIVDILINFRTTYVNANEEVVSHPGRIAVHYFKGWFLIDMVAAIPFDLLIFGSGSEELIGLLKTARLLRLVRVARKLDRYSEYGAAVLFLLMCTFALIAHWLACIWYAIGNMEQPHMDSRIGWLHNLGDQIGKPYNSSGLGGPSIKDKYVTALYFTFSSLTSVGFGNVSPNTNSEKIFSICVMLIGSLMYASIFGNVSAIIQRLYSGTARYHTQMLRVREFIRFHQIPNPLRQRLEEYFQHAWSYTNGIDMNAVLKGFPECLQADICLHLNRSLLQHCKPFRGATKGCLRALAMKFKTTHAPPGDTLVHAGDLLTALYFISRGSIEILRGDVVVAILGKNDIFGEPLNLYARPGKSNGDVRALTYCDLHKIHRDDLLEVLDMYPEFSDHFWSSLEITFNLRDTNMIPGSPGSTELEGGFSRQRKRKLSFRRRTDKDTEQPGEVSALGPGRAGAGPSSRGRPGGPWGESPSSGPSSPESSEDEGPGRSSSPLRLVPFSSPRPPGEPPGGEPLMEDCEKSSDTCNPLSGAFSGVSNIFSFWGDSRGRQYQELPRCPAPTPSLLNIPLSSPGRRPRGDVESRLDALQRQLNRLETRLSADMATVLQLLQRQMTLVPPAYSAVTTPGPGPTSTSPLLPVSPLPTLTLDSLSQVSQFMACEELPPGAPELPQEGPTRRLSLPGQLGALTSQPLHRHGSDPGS

## COC(CO)c1nc2c(cc1Cc1ccc(F)cc1)N(C(=O)CN1C[C@@H](C)NC[C@@H]1CN1[C@H](C)COC[C@H]1C)CC2(C)C (single isomer, unassigned) [Example 36, 2-[(2R,5R)-2-{[(3R,5R)-3,5-Dimethylmorpholin-4-yl]methyl}-5-methylpiperazin-1-yl]-1-{6-[(4-fluorophenyl)methyl]-5-((R or S)-2-hydroxy-1-methoxyethyl)-3,3-dimethyl-1H,2H,3H-pyrrolo[3,2-b]pyridin-1-yl}ethan-1-one]
[1]
  EC50: 0.48 nM
[1]; Homo sapiens, EVSA-T, 72 h
  EC50: 0.38 nM
[2]
  EC50: 2.6 nM and 4.2 nM
[3]; Homo sapiens, MDA-MB-231, 72 h
  EC50: 2.5 nM
[3]
  EC50: 2.7 nM
hERG ion channel; CHO K1 cells stably transfected with hERG
  IC50: 420000 nM

## CCCCc1cc2c([nH]c1=O)C(C)(C)CN2C(=O)CN1C[C@@H](C)NC[C@@H]1CN1C[C@H](C)OC[C@H]1C [Example 37, 6-Butyl-1-{2-[(2R,5R)-2-{[(2S,5R)-2,5-dimethylmorpholin-4-yl]methyl}-5-methylpiperazin-1-yl]acetyl}-3,3-dimethyl-1H,2H,3H,4H,5H-pyrrolo[3,2-b]pyridin-5-one dihydrochloride]
[1]; Homo sapiens, EVSA-T, 72 h
  EC50: 3.2 nM
[2]
  EC50: 7.4 nM
[3]; Homo sapiens, MDA-MB-231, 72 h
  EC50: 18 nM
hERG ion channel; @ 500 μM
  hERG PPC (PI): 63% @ 500

## CCCCn1cc2c(cc1=O)C(C)(C)CN2C(=O)CN1C[C@@H](C)NC[C@@H]1CN1[C@H](C)COC[C@H]1C [Example 35, 6-Butyl-1-{2-[(2R,5R)-2-{[(3R,5R)-3,5-dimethylmorpholin-4-yl]methyl}-5-methylpiperazin-1-yl]acetyl}-3,3-dimethyl-1H,2H,3H,5H,6H-pyrrolo[2,3-c]pyridin-5-one dihydrochloride]
[1]; Homo sapiens, EVSA-T, 72 h
  EC50: 16 nM
[2]
  EC50: 13 nM
[3]; Homo sapiens, MDA-MB-231, 72 h
  EC50: 130 nM
hERG ion channel; @ 1000 μM
  hERG PPC (PI): 53% @ 1000

## C[C@@H]1CN(CC(=O)N2CC(C)(C)c3nc(CO)c(Cc4ccc(F)cc4)cc32)[C@@H](CN2CCOC[C@H]2C)CN1 [Example 2, 1-{6-[(4-Fluorophenyl)methyl]-5-(hydroxymethyl)-3,3-dimethyl-1H,2H,3H-pyrrolo[3,2-b]pyridin-1-yl}-2-[(2R,5R)-5-methyl-2-{[(3R)-3-methylmorpholin-4-yl]methyl}piperazin-1-yl] ethan-1-one dihydrochloride]
SK-MEL-28 [4]
  % Cleaved Caspase-3: 63.2%
SK-MEL-5
  % Cleaved Caspase-3: 52.8%
SK-MEL-2
  % Cleaved Caspase-3: 49.5%
RPMI-7951
  % Cleaved Caspase-3: 44.0%
MALME-3M
  % Cleaved Caspase-3: 29.5%
A375 [5]
  % Cleaved Caspase-3: 26.5%
WM-115
  % Cleaved Caspase-3: 16.7%
WM-266-4
  % Cleaved Caspase-3: 13.2%
SK-MEL-28 [6]; [8]
  % Apoptosis Example 2 alone*: 42.2 (0.1 μM) %
A375 [7]; [8]
  % Apoptosis Example 2 alone*: 14.4 (0.1 μM) %
A375 [7]; Example 2 1 μM + 1 ng/ml TNF-α, 24 h
  % Apoptosis Example 2 alone*: 31.2 (1 μM) %

## CCCS(=O)(=O)Nc1ccc(F)c(C(=O)c2c[nH]c3ncc(-c4ccc(Cl)cc4)cc23)c1F [Vemurafenib, reference compound]
SK-MEL-28 [6]; agent 1 μM with Example 2 1 μM + 1 ng/ml TNF-α, 24 h
  % Apoptosis Combination: 87.3%
SK-MEL-28 [6]; combination (agent 1 μM) relative to Example 2 1 μM + TNF-α alone
  Fold Increase: 1.7
A375 [7]; agent 4 μM with Example 2 1 μM + 1 ng/ml TNF-α, 24 h
  % Apoptosis Combination: 61.3%
A375 [7]; combination (agent 4 μM) relative to Example 2 1 μM + TNF-α alone
  Fold Increase: 2.0
